For 42 molecules, IC50 results are on record in patent US9902728B2, “Pyrrolo and pyrazolopyrimidines as ubiquitin-specific protease 7 inhibitors” (Forma Therapeutics, Inc., priority 2014, dated 2018).

pIC50: −log10 of the molar value.

In the first assay the target is T1, USP7 (Homo sapiens, UniProt Q93009).
T1 construct: USP7, construct USP7 (208-1102) 6*His, Viva Biotech; 6xHis (C); purchased Viva Biotech
T1 sequence (Q93009 208-1102): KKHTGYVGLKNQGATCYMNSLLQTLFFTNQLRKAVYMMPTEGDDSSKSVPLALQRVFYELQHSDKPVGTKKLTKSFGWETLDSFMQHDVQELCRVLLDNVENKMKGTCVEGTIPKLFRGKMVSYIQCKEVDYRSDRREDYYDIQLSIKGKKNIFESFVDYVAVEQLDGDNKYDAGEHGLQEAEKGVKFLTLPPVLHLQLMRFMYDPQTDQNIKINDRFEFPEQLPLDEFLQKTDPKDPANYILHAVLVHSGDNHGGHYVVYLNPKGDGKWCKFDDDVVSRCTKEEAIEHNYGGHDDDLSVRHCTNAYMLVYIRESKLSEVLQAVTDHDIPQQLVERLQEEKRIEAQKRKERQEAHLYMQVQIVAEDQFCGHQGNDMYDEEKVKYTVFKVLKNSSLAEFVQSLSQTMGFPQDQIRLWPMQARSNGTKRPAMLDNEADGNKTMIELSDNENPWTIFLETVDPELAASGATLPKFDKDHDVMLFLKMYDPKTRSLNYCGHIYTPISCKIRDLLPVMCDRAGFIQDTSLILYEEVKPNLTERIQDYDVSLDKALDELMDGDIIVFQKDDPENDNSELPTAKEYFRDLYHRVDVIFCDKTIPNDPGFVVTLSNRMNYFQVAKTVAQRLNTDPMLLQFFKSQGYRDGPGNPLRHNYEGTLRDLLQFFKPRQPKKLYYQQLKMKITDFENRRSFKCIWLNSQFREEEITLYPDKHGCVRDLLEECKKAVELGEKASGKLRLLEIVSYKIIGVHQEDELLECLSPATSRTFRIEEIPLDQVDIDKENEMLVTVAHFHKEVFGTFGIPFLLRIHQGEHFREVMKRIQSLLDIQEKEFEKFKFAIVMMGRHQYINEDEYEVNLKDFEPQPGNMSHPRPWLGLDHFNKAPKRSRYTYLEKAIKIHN
Description: USP7 Assay A (Ubitquin-Rhodamine 110 Assay). It counts as biochemical. Particulars: USP7 activity in USP7 assay A and B (table does not say which assay per compound); read-out: USP7_IC50. An outline of the steps: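 Ub-Rh110 cleavage in 20 mM Tris-HCl pH 8.0 with 1 mM GSH, 0.03% BGG, 0.01% Triton X-100; compound preincubated with enzyme 30 min before substrate.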
On to `O=C(c1ccc(-n2cnnc2)cc1)N1CCC(O)(Cn2cnc3c(cnn3-c3ccc(Cl)cc3)c2=O)CC1` [Compound I-919], for which the pIC50 was 5.00 to 6.00.

For `CC1(C(=O)N2CCC(O)(Cn3cnc4c(cnn4-c4ccc(N5CCC(C#N)CC5)cc4)c3=O)CC2)CC1` [Compound I-1752], the pIC50 was 6.00 to 6.70.

For the molecule `O=C(C1CC1)N1CCC(O)(Cn2cnc3c(ccn3-c3ccc(F)c(CN4CCCCC4)c3)c2=O)CC1` [Compound I-1010], the pIC50 is 5.00 to 6.00.

For `O=C(c1cnc(N2CCC(O)CC2)o1)N1CCC(O)(Cn2cnc3c(cnn3-c3ccc(F)cc3)c2=O)CC1` [Compound I-915], the pIC50 was 5.00 to 6.00.

`CC1(C(=O)N2CCC(O)(Cn3cnc4c(cnn4-c4ccc(NC5CCC(F)(F)CC5)cc4)c3=O)CC2)CC1` [Compound I-786]: the pIC50 is 6.00 to 6.70.

Consider `Cc1cnc(-c2ccc(-n3ncc4c(=O)n(CC5(O)CCN(C(=O)c6ccc(F)cc6)CC5)cnc43)cc2)n1C` [Compound I-984], for which the pIC50 was 5.00 to 6.00.

As for `C[C@]1(O)CCN(c2ccc(-n3ncc4c(=O)n(CC5(O)CCN(C(=O)C[C@H](C(F)F)n6cccn6)CC5)cnc43)cc2)C1` [Compound I-833], the pIC50 was above 6.70.

Regarding `O=C(c1cnc(C2CC2)o1)N1CCC(O)(Cn2cnc3c(cnn3-c3ccc(C4CCC4)cc3)c2=O)CC1` [Compound I-847], the pIC50 is 6.00 to 6.70.

`O=C(c1ccc(F)cc1)N1CCC(O)(Cn2cnc3c(cnn3-c3ccc(-n4ncc5c4CCOC5)cc3)c2=O)CC1` [Compound I-820]: the pIC50 was 6.00 to 6.70.

For the molecule `O=C(C1CCC(Oc2cnccn2)CC1)N1CCC(O)(Cn2cnc3c(cnn3-c3ccc(F)cc3)c2=O)CC1` (stereo not drawn) [Compound I-1021], the pIC50 was 6.00 to 6.70.

With `O=C(C1CCC(Oc2cccc(F)n2)CC1)N1CCC(O)(Cn2cnc3c(cnn3-c3ccccc3)c2=O)CC1` (stereo not drawn) [Compound I-741], the pIC50 is above 6.70.

As to `O=C(C1CC1)N1CCC(O)(Cn2cnc3c(cnn3-c3ccc(-c4ccc(N5CC[C@@H](O)C5)nc4)cc3)c2=O)CC1` [Compound I-687], the pIC50 was 6.00 to 6.70.

Regarding `CC(=O)N1CC2CC1CN2c1cccc(-n2ncc3c(=O)n(CC4(O)CCN(C(=O)C5(C)CC5)CC4)cnc32)c1` (stereo not drawn) [Compound I-1748], the pIC50 was 6.00 to 6.70.

`O=C(C1CC1)N1CCC(O)(Cn2cnc3c(cnn3-c3ccc(N4CCC5(CC4)CC(CO)C5)cc3)c2=O)CC1` [Compound I-1741]: the pIC50 is 6.00 to 6.70.

In the case of `Cn1cc(OC2CCC(C(=O)N3CCC(O)(Cn4cnc5c(cnn5-c5ccc(F)cc5)c4=O)CC3)CC2)cn1` (stereo not drawn) [Compound I-758], the pIC50 is 6.00 to 6.70.

With `O=C(C1CC(Nc2cccnc2)C1)N1CCC(O)(Cn2cnc3c(cnn3-c3ccc(F)cc3)c2=O)CC1` (stereo not drawn) [Compound I-1031], the pIC50 is 6.00 to 6.70.

For the molecule `CC1(C(=O)N2CCC(O)(Cn3cnc4c(cnn4-c4ccc(OCC5(F)CCC5)cc4)c3=O)CC2)CC1` [Compound I-1119], the pIC50 is above 6.70.

Still in this assay, the particulars now being: USP7 assay A and B (table does not say which assay per compound); Ubiquitin-Rhodamine 110 substrate; read-out: USP7_IC50.
As for `CC(C)(C)n1ncc2c(=O)n(CC3(O)CCN(C(=O)c4ccc(Oc5ccccc5)cc4)CC3)cnc21` [Compound I-60], the pIC50 is below 5.00.

Staying with this assay, now noted: USP7 assay A and B (table does not say which assay per compound); read-out: USP7_IC50.
Regarding `O=C(c1ccc(F)cc1)N1CCC(O)(Cn2cnc3c(cnn3-c3cccc(OCc4ccccc4)c3)c2=O)CC1` [Compound I-1285], the pIC50 was 5.00 to 6.00.

As to `CS(=O)(=O)Nc1ccc(C(=O)N2CCC(O)(Cn3cnc4c(cnn4-c4ccccc4)c3=O)CC2)cc1` [Compound I-164], the pIC50 was 6.00 to 6.70.

As for `O=C(C1CC1)N1CCC(O)(Cn2cnc3c(cnn3-c3ccc(F)cc3)c2=O)CC1` [Compound I-38], the pIC50 is 5.00 to 6.00.

With `CN(C)C(=O)N1CCC(O)(Cn2cnc3c(cnn3-c3ccc(N4CCC(F)(F)CC4)cc3)c2=O)CC1` [Compound I-1461], the pIC50 is 5.00 to 6.00.

For the molecule `COc1ccc(C(=O)N2CCC(O)(Cn3cnc4c(cnn4-c4ccccc4)c3=O)CC2)cc1Cl` [Compound I-214], the pIC50 was 6.00 to 6.70.

For `NC(=O)c1cccc(C(=O)N2CCC(O)(Cn3cnc4c(cnn4-c4ccccc4)c3=O)CC2)c1` [Compound I-172], the pIC50 is 5.00 to 6.00.

`CC(F)(F)c1ccc(C(=O)N2CCC(O)(Cn3cnc4c(cnn4-c4ccccc4)c3=O)CC2)cc1` [Compound I-294]: the pIC50 is 5.00 to 6.00.

Turning to `O=C(C1CC1)N1CCC(O)(Cn2cnc3c(cnn3-c3cccc(N4CCNCC4)c3)c2=O)CC1` [Compound I-498], the pIC50 was above 6.70.

In the case of `CC(=O)NC1CCN(c2ccc(-n3ncc4c(=O)n(CC5(O)CCN(C(=O)C6CC6)CC5)cnc43)cc2)CC1` [Compound I-1208], the pIC50 is 5.00 to 6.00.

For `O=C(c1ccc(Oc2ccccc2)cc1)N1CCC(O)(Cn2cnc3c(cnn3C3CC3)c2=O)CC1` [Compound I-152], the pIC50 was 5.00 to 6.00.

Turning to `CN(C)C1CCN(C(=O)c2ccc(-n3ncc4c(=O)n(CC5(O)CCN(C(=O)C6CC6)CC5)cnc43)cc2)CC1` [Compound I-1496], the pIC50 is 5.00 to 6.00.

Consider `O=C(c1ccncc1)N1CCC(O)(Cn2cnc3c(cnn3-c3ccccc3)c2=O)CC1` [Compound I-191], for which the pIC50 is 5.00 to 6.00.

Consider `O=C(C1CC1)N1CCC(O)(Cn2cnc3c(cnn3-c3ccc(NCC4CCOCC4)cc3)c2=O)CC1` [Compound I-1402], for which the pIC50 was 5.00 to 6.00.

For the molecule `CCN(Cc1ccc(-n2ncc3c(=O)n(CC4(O)CCN(C(=O)C5CC5)CC4)cnc32)cc1)C1CCCCC1` [Compound I-416], the pIC50 is 5.00 to 6.00.

In the case of `NCc1cccc(-n2ccc3c(=O)n(CC4(O)CCN(C(=O)c5ccc(F)cc5)CC4)cnc32)c1` [Compound I-51, 7-(3-(Aminomethyl)phenyl)-3-((1-(4-fluorobenzoyl)-4-hydroxypiperidin-4-yl)methyl)-3,7-dihydro-4H-pyrrolo[2,3-d]pyrimidin-4-one], the pIC50 is 5.00 to 6.00.

As for `Cc1ccc(-n2ncc3c(=O)n(CC4(O)CCN(C(=O)c5cnc(C6CC6)o5)CC4)cnc32)cc1` [Compound I-1542], the pIC50 was 6.00 to 6.70.

Take `N#Cc1cccc(COc2ccc(-n3ncc4c(=O)n(CC5(O)CCN(C(=O)c6ccc(F)cc6)CC5)cnc43)cc2)c1` [Compound I-1318]: the pIC50 was 5.00 to 6.00.

As for `O=C(C1CC1)N1CCC(O)(Cn2cnc3c(cnn3-c3ccc(Nc4ccc(N5CCOCC5)cc4)cc3)c2=O)CC1` [Compound I-1234], the pIC50 is 5.00 to 6.00.

As for `C#CC(=O)NC1CC(C(=O)N2CCC(O)(Cn3cnc4c(cnn4-c4ccc(F)cc4)c3=O)CC2)C1` (stereo not drawn) [Compound I-950], the pIC50 is 5.00 to 6.00.

With `C=CC(=O)N1CC[C@@H]1C(=O)N1CCC(O)(Cn2cnc3c(cnn3-c3ccc(F)cc3)c2=O)CC1` [Compound I-574], the pIC50 was 6.00 to 6.70.

On to `CN(C)C(=O)N1CCC(O)(Cn2cnc3c(cnn3-c3ccc(-n4cc(C(F)(F)F)cn4)cc3)c2=O)CC1` [Compound I-1526], for which the pIC50 is 5.00 to 6.00.

`CNC(=O)N1CCC(O)(Cn2cnc3c(cnn3-c3ccc(F)cc3)c2=O)CC1` [Compound I-284, 4-{[1-(4-fluorophenyl)-4-oxo-1H,4H,5H-pyrazolo[3,4-d]pyrimidin-5-yl]methyl}-4-hydroxy-N-methylpiperidine-1-carboxamide]: the pIC50 is 5.00 to 6.00.

As for `O=C(c1cc2n(n1)CCCO2)N1CCC(O)(Cn2cnc3c(cnn3-c3ccc(Cl)cc3)c2=O)CC1` [Compound I-1569], the pIC50 is 5.00 to 6.00.

With `Cc1ccccc1S(=O)(=O)Nc1ccc(-n2ncc3c(=O)n(CC4(O)CCN(C(=O)C5CC5)CC4)cnc32)cc1` [Compound I-1425], the pIC50 was 5.00 to 6.00.
